Laboratory results taken from the supplement of paper PMC11451515.

Tested on: NOMO1
Test: cell viability relative to DMSO control; higher = less cytotoxic
Settings: 48 h
How it was run: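 Viability was expressed as a per-plate percentage of DMSO wells, with cell-free wells as background. Leukemia cells (NOMO1 or SEM at 500 cells/well, P12-Ichikawa at 1000 cells/well) were adapted for at least four passages in each medium and seeded in 1536-well plates (5 μl). Library compounds in DMSO were pin-dosed over an 11-point threefold series from 47 μM to 0.79 nM, and CellTiter-Glo One luminescence was read after 48 h at 37°C.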

[1] = HPLM + 10% dialyzed FBS, 0.000781 µM
[2] = HPLM + 10% dialyzed FBS, 0.00234 µM
[3] = HPLM + 10% dialyzed FBS, 0.00702 µM
[4] = HPLM + 10% dialyzed FBS, 0.0211 µM
[5] = HPLM + 10% dialyzed FBS, 0.0632 µM
[6] = HPLM + 10% dialyzed FBS, 0.19 µM
[7] = HPLM + 10% dialyzed FBS, 0.569 µM
[8] = HPLM + 10% dialyzed FBS, 1.71 µM
[9] = HPLM + 10% dialyzed FBS, 5.12 µM
[10] = HPLM + 10% dialyzed FBS, 15.4 µM
[11] = HPLM + 10% dialyzed FBS, 46.1 µM
[12] = RPMI 5 mM glucose + 10% FBS, 0.000781 µM
[13] = RPMI 5 mM glucose + 10% FBS, 0.00234 µM
[14] = RPMI 5 mM glucose + 10% FBS, 0.00702 µM
[15] = RPMI 5 mM glucose + 10% FBS, 0.0211 µM
[16] = RPMI 5 mM glucose + 10% FBS, 0.0632 µM
[17] = RPMI 5 mM glucose + 10% FBS, 0.19 µM
[18] = RPMI 5 mM glucose + 10% FBS, 0.569 µM
[19] = RPMI 5 mM glucose + 10% FBS, 1.71 µM
[20] = RPMI 5 mM glucose + 10% FBS, 5.12 µM
[21] = RPMI 5 mM glucose + 10% FBS, 15.4 µM
[22] = RPMI 5 mM glucose + 10% FBS, 46.1 µM
[23] = RPMI 5 mM glucose + 10% dialyzed FBS, 0.000781 µM
[24] = RPMI 5 mM glucose + 10% dialyzed FBS, 0.00234 µM
[25] = RPMI 5 mM glucose + 10% dialyzed FBS, 0.00702 µM
[26] = RPMI 5 mM glucose + 10% dialyzed FBS, 0.0211 µM
[27] = RPMI 5 mM glucose + 10% dialyzed FBS, 0.0632 µM
[28] = RPMI 5 mM glucose + 10% dialyzed FBS, 0.19 µM
[29] = RPMI 5 mM glucose + 10% dialyzed FBS, 0.569 µM
[30] = RPMI 5 mM glucose + 10% dialyzed FBS, 1.71 µM
[31] = RPMI 5 mM glucose + 10% dialyzed FBS, 5.12 µM
[32] = RPMI 5 mM glucose + 10% dialyzed FBS, 15.4 µM
[33] = RPMI 5 mM glucose + 10% dialyzed FBS, 46.1 µM

| Compound | cell viability [1] | cell viability [2] | cell viability [3] | cell viability [4] | cell viability [5] | cell viability [6] | cell viability [7] | cell viability [8] | cell viability [9] | cell viability [10] | cell viability [11] | cell viability [12] | cell viability [13] | cell viability [14] | cell viability [15] | cell viability [16] | cell viability [17] | cell viability [18] | cell viability [19] | cell viability [20] | cell viability [21] | cell viability [22] | cell viability [23] | cell viability [24] | cell viability [25] | cell viability [26] | cell viability [27] | cell viability [28] | cell viability [29] | cell viability [30] | cell viability [31] | cell viability [32] | cell viability [33] |
| --- | --- | --- | --- | --- | --- | --- | --- | --- | --- | --- | --- | --- | --- | --- | --- | --- | --- | --- | --- | --- | --- | --- | --- | --- | --- | --- | --- | --- | --- | --- | --- | --- | --- |
| Cc1ccc(NC(=O)c2cccc(N(C)C)c2)cc1NC(=O)c1ccc(O)cc1 | 127% | 119% | 115% | 121% | 151% | 136% | 146% | 122% | 120% | 136% | 105% | 114% | 110% | 107% | 108% | 113% | 109% | 121% | 118% | 118% | 121% | 106% | 110% | 114% | 115% | 121% | 116% | 110% | 116% | 126% | 138% | 108% | 107% |
| FC1=CC=C(CN2\C=C/C=C(/C(=O)N[C@@H](COC3=CC4=C(NC(=O)N4)C=C3)C5=CC=CC=C5)C2=O)C=C1F | 86.7% | 91.5% | 97% | 111% | 103% | 109% | 97.6% | 82.8% | 64.6% | 53.8% | 43.5% | 77.8% | 80.1% | 88.4% | 79.9% | 82.8% | 96.6% | 85.8% | 86.8% | 69.2% | 60.3% | 45.9% | 88.7% | 86.8% | 97.7% | 82.8% | 84.4% | 89.5% | 82.3% | 73.9% | 63.3% | 57.6% | 44.3% |
| C[N]1N=CC2=C1C=C(C(=C2)OC3=CC=C(NC(=O)\C4=C\C=C(\C)N(C4=O)C5=CC=C(F)C=C5)C=C3F)C6=C[NH]N=C6 | 107% | 131% | 117% | 126% | 133% | 141% | 132% | 125% | 86.1% | 25.3% | 15.6% | 113% | 112% | 111% | 121% | 127% | 107% | 116% | 118% | 104% | 16.4% | 11.9% | 121% | 117% | 118% | 108% | 122% | 125% | 124% | 115% | 100% | 30% | 16.2% |
| CN1/C=C(\N=C(NC2=CC=C(C=C2)C(=O)N3CCOCC3)/C1=O)/C4=C(C)C(=CC=C4)NC(=O)C5=CC=C(C=C5)C(C)(C)C | 91.6% | 114% | 102% | 85.2% | 103% | 111% | 112% | 110% | 97.2% | 94.2% | 70.7% | 91.4% | 84.4% | 99.5% | 89.5% | 98.3% | 88.7% | 100% | 84.9% | 80.6% | 88.1% | 85.1% | 97.6% | 92.9% | 96.2% | 95.9% | 106% | 100% | 107% | 94.6% | 93.1% | 78.4% | 77.2% |
| CCCCOc1ccc(CC(=O)NO)cc1 | 122% | 124% | 114% | 121% | 101% | 104% | 104% | 109% | 107% | 95.4% | 85.3% | 101% | 110% | 122% | 99.3% | 97.4% | 118% | 108% | 108% | 96.1% | 97.2% | 81.2% | 107% | 123% | 116% | 126% | 109% | 111% | 109% | 103% | 95% | 94.7% | 86.9% |
| CC1=CC=C2\N=C/3N(CC[C@@]3(O)C(=O)C2=C1)C4=CC=CC=C4 | 102% | 103% | 96.2% | 104% | 104% | 95.4% | 105% | 88.3% | 74% | 88.9% | 91.3% | 82% | 88.2% | 93.6% | 85.4% | 79.3% | 79.5% | 84% | 84.4% | 75.8% | 92.2% | 85.9% | 94.5% | 95.1% | 87.5% | 86.7% | 101% | 92% | 86.7% | 88.9% | 79.2% | 84.9% | 82.9% |
| Cc1cc(SCc2sc(-c3ccc(C(F)(F)F)cc3)nc2C)ccc1OCC(=O)O | 102% | 113% | 97.5% | 124% | 109% | 110% | 104% | 92.3% | 102% | 94.8% | 78.1% | 100% | 97.1% | 85.9% | 99.1% | 90.3% | 95% | 90.7% | 102% | 86.6% | 91.4% | 81.9% | 93.2% | 95.1% | 101% | 108% | 92.2% | 102% | 99.6% | 97.7% | 101% | 89.2% | 83.1% |
| O=[S+]([O-])(O)c1ccc2cc(/N=N/c3cc([S+](=O)([O-])O)c4cccnc4c3O)ccc2c1 | 114% | 122% | 133% | 136% | 129% | 139% | 122% | 126% | 127% | 110% | 44% | 116% | 106% | 111% | 109% | 119% | 119% | 109% | 110% | 101% | 110% | 44.2% | 121% | 124% | 117% | 115% | 119% | 113% | 121% | 119% | 110% | 106% | 62.1% |
| NC(=O)c1cnc(-c2ccc(C3(N)CCC3)cc2)c(-c2ccccc2)c1 |  |  |  |  |  |  |  |  |  |  |  | 119% | 117% | 126% | 117% | 136% | 122% | 128% | 132% | 127% | 131% | 76.9% |  |  |  |  |  |  |  |  |  |  |  |
| CCOC(CN1C(=O)[C@](CC(=O)Nc2ccc(C)cc2)(NC(=O)Nc2ccc(C)cc2)c2ccccc21)OCC | 109% | 112% | 125% | 113% | 123% | 122% | 126% | 124% | 106% | 83.8% | 70.7% | 110% | 107% | 106% | 107% | 113% | 104% | 123% | 125% | 113% | 103% | 49.8% | 99.2% | 101% | 105% | 99.8% | 114% | 115% | 109% | 115% | 99.3% | 93% | 60.3% |
| CCc1cccc2c3c([nH]c12)C(CC)(CC(=O)O)OCC3 (centres undefined) | 98.5% | 98.5% | 122% | 105% | 100% | 113% | 88.4% | 97.8% | 97.4% | 100% | 84.5% | 95% | 92.7% | 95.9% | 102% | 85% | 90.4% | 98.1% | 93.2% | 93.6% | 84.7% | 87.2% | 100% | 94.3% | 95.1% | 87.3% | 82.4% | 77.7% | 89.3% | 87.5% | 92.9% | 82.9% | 97.1% |
| CC(=O)Oc1cc2c(s1)CCN(C(C(=O)C1CC1)c1ccccc1F)C2.Cl (centres undefined) | 90.3% | 106% | 104% | 117% | 98.3% | 107% | 116% | 64.7% | 58% | 42.7% | 16% | 98.5% | 92.7% | 95.5% | 94.3% | 97.3% | 108% | 91.1% | 76.8% | 64.4% | 51.7% | 18.7% | 88% | 95.6% | 100% | 101% | 90.4% | 99.6% | 103% | 86.4% | 62.1% | 40.3% | 25.1% |
| N#CC1(c2ccc(NC(=O)c3cccnc3NCc3ccncc3)cc2)CCCC1 | 112% | 110% | 110% | 121% | 114% | 98.4% | 108% | 95.2% | 103% | 91.4% | 93.1% | 99.5% | 106% | 99.2% | 102% | 113% | 106% | 97.8% | 104% | 103% | 105% | 98.1% | 110% | 105% | 116% | 115% | 120% | 109% | 104% | 106% | 113% | 104% | 99.8% |
| COC/1=C/[C@@H]2[C@@H]3CC4=C(C(=C(OC)C=C4)O)[C@]2(CCN3C)CC1=O | 117% | 123% | 151% | 147% | 151% | 135% | 147% | 161% | 135% | 131% | 113% | 118% | 124% | 135% | 165% | 144% | 148% | 148% | 139% | 153% | 141% | 126% |  |  |  |  |  |  |  |  |  |  |  |
